Data: patent publication US20130252983A1, “ACTIVATING PHOSPHORYLATION SITE ON GLUTAMINASE C” (CORNELL UNIVERSITY, priority 2010, published 2013)

How the values were obtained:
[1] = tested on: NIH 3T3 cells stably expressing Cdc42(F28L), Rac(F28L), RhoC(F30L); experiment: Soft-agar colony formation of cells expressing activated Rho GTPase mutants; type: cell-based, mouse; conditions: 10 μM, 14 days
Description: FIGS. 2A-G illustrate effects of 968 on the transforming activity of constitutively active Rho GTPases and human breast cancer cells. […] Cells were scored after 14 days and plotted as the percentage of the total number of colonies greater than 50 μm in diameter. Data represent the average of 3 experiments (±s.d.). […] Data represent the average of 3 experiments (±s.d.). […] Data represent the average of 3 experiments (±s.d.). […] After 24 hours at 37° C., the migratory cells were fixed, stained with GIEMSA, and counted. Data represent the average of 3 experiments (±s.d.). […] Data represent the average of 3 experiments (±s.d.). […] Data represent the average of 3 experiments (±s.d.). […] Data represent the average of 3 experiments (±s.d.).

GAC phosphorylation = target: T1, GAC phosphorylation (Mus musculus, UniProt D3Z7P3); experiment: 2-D gel analysis of V5-GAC phosphorylation states from treated Dbl cells; type: cell-based; conditions: 968 10 μM, 48 hours
T1 construct: expressed in transfected cells; host or cells: NIH 3T3 cells (stably expressing Dbl, or parental), transient transfection
T1 sequence (D3Z7P3 55-603 isoform D3Z7P3-2 limits assumed): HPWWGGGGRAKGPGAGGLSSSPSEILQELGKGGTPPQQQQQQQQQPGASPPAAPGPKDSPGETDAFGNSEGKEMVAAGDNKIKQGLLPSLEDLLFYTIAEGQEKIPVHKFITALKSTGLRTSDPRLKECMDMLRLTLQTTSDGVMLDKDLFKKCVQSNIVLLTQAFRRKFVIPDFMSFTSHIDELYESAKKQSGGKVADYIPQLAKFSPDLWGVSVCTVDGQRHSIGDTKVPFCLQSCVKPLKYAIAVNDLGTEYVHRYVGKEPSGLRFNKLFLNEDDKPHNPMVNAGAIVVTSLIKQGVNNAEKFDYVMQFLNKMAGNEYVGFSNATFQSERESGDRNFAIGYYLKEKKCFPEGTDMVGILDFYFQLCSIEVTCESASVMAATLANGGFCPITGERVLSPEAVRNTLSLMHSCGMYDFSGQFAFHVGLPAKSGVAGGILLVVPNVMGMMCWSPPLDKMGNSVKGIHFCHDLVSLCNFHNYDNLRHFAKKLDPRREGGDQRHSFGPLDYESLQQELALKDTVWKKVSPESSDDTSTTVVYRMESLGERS
Description: NIH 3T3 cells stably expressing the Dbl oncogene, were transiently transfected with DNA encoding a VS-tagged GAC, and then one sample was treated with 968 (10 μM) for 48 hours. The cells were then harvested and the ectopically expressed GAC was isolated by immunoprecipitation via the V5 tag. The samples were then subjected to 2-D gel analysis to separate the V5-GAC by charge and size, and the V5-tagged GAC was visualized by Western blotting using an anti-V5 antibody.
GAC runs distinctly on a 2D gel depending whether it is expressed in normal (untransformed) NIH 3T3 cells or in NIH 3T3 cells which are transformed by the Dbl oncogene. Specifically, there is one major species of GAC present in NIH 3T3 cells whereas in Dbl cells, two additional species of GAC appear which migrate with a more negative charge but at the same molecular mass as the original species (FIG. 21, first and second panels). […] Additionally, it has been shown that small molecules of the 968 family which are able to inhibit GAC in vivo do so by blocking the ability of GAC to become phosphorylated. Thus, it was of great interest to identify the amino acid(s) on GAC whose phosphorylation is causal in the activation of this enzyme.

In the case of `CN(C)c1ccc(C2Nc3ccc4ccccc4c3C3=C2C(=O)CC(C)(C)C3)cc1Br` (centres unmarked) [Compound 968, 5-[3-bromo-4-(dimethylamino)phenyl]-2,2-dimethyl-2,3,5,6-tetrahydrobenzo[a]], the “colony formation in soft-agar” value [1] is reported as “blocking their ability” and the “phosphorylation state of GAC” value (GAC phosphorylation) is reported as “significant reduction of at least one phosphorylation state of GAC”.
